Assay [1] relates to HeLaS3 cells. The assay is described as follows: PLK1 inhibitory activity at cellular level: M phase arrest by phospho-histone H3 (Ser10) immunofluorescence. Format: cell-based, human. The following applies: HeLaS3 cells synchronized at G1/S; 12 hours after addition; concentration inducing 50% of maximum ratio of cells arrested at M phase. As to the method:
For the measurement of the PLK 1 inhibitory activity of the compound at the cellular level, human uterine cervix cell lines HeLaS3 cells were used. The HeLaS3 cell was obtained from American Type Culture Collection (ATTC), and cultured in a CO2-incubator of saturated steam, in the presence of 5% CO2, by using Dulbecco's Modified Eagle's Medium containing 10% fetal calf serum at 37° C.
It has been reported that PLK 1 plays an important role in various stages of mitotic phase (M-phase) in mammalian cells (Nature Review Molecular Cell Biology (Nat. Rev. Mol. Cell. Biol.), Vol. 5, 429, (2004)). In fact, when the mammalian cells are treated with PLK 1 siRNA to control the expression level, the cell cycle progression is inhibited and thus the cell is arrested at M phase. In addition, when examining the phosphorylation level of serine (10th residue on histone H3) which is thought to be required for a chromosome condensation in M phase, is examined, it is observed that the level is enhanced to a high level. Thus, after treating the cell with the compound according to the invention, the phosphorylation level of histone H3 was examined by the indirect fluorescent antibody technique, the cells arrested at M phase were identified by using the level thereof as an indicator to analyze the ratio of cells arrested at M phase, and then EC50 value of each compound was calculated to evaluate the PLK 1 inhibitory activity at a cellular level.
First, HeLaS3 cells synchronized at the G1/S phase by the double-thymidine method were seeded into a lysine-treated 96-well plate (Falcon Corp.) in the ratio of 8,000 per one well, and allowed to stand still in the above-mentioned CO2 incubator. 4 hours after the seeding, the compound according to the invention, which is diluted in series, was added into each well of the plate, and further allowed to stand still in the CO2 incubator. 12 hours after the addition of the compound according to the invention, the culture medium containing the compound according to the invention in each well of the plate was removed, and then 100 μL of ice-cold 100% methanol (Wako Pure Chemical Industries, Ltd.) was added, to carry out cell fixation for 10 minutes and treatment for increasing the membrane permeability. Subsequently, to the wells in which the methanol was removed, 50 μL of 1% BSA/PBS was added, and then blocking was carried out for 30 minutes. Thereafter, for the primary antibody reaction, 50 μL of 1% BSA/PBS containing a 2.5 mg/mL Anti-phospho Histone H3 (Ser10) antibody (Upstate Corp.) was added, and the plate was left over at room temperature for 90 minutes. After terminating the reaction, each well was once washed with PBS, and for the second antibody reaction, 50 μL of 1% BSA/PBS containing 1.5 mg/mL Cy5-labelled anti-rabbit IgG (H+ L) antibody (Chemicon) and 10 ug/mL DAPI (Sigma) which is a nucleus staining regent, was added to the wells, and further left over at room temperature for 90 minutes. After terminating the reaction, the reaction solution in wells was removed and replaced with 100 μL of PBS, and then fluorescence images were captured by using IN Cell Analyzer 1000 (manufactured by GE Amersham) to analyze the ratio of the cells arrested at M phase (Mitotic index) in each view.

Assay [2] addresses T1, full-length human PLK1 (Homo sapiens, UniProt P53350).
T1 construct: a baculovirus expressing full-length human PLK1; GST (glutathione S-transferase) (N, cleaved yes); made in house; host or cells: Spodoptera frugiperda Sf9 insect cells (baculovirus)
The assay is described as follows: Measurement of PLK1 activity (33P-ATP, phosphocellulose filter). The class given is biochemical. The following applies: 50 μM substrate peptide, 50 μM ATP, 25° C., 20 minutes, read-out: PLK1 inhibitory activity.
Protocol: First, a baculovirus expressing full-length human PLK1 of which the N terminus is fused with GST (glutathione S-transferase) was prepared, and then the PLK1 transfected into a Spodoptera frugiperda(Sf)9 insect cell was highly expressed as a GST-fused protein. The cells were recovered and suspended in a lysis buffer (50 mM tris-hydrochloric acid buffer (pH 7.4)/150 mM sodium chloride/1 mM EDTA (ethylenediamine tetraacetic acid)/1 mM dithiothreitol/0.1% polyoxyethylene sorbitan monolaurate) to break open cells with a sonicator, and supernatant was recovered after a centrifugation. The supernatant was reacted on glutathione sepharose beads, and then the beads were washed with a lysis buffer. Thereafter, the beads were reacted in a lysis buffer containing Precision Protease to recover supernatant. […]
The reaction was carried out in accordance with the method of Toyoshima-Morimoto et al. [Nature, Vol. 410, 215-220, (2001)]. […] After washing the phosphocellulose filter with 75 mM phosphate buffer, the filter was dried to measure the radioactivity with a liquid scintillation counter. […]

In assay [3] the target is T2, PLK1-T210D (human active type PLK1) (Homo sapiens, UniProt P53350, T210D).
T2 construct: a baculovirus expressing full-length human PLK1; GST (glutathione S-transferase) (N); made in house; host or cells: insect cells (baculovirus)
The assay is described as follows: Measurement of PLK1-T210D activity (33P-ATP, phosphocellulose filter). The class given is biochemical. The note with it: 50 μM substrate peptide, 50 μM ATP, 25° C., 20 minutes, read-out: PLK1-T210D inhibitory activity.
Protocol: For the measurement of the PLK1 and PLK1-T210D activity, a synthetic peptide (aspartic acid-glutamic acid leucine-methionine-glutamic acid-alanine-serine-phenylalanine-alanine-aspartic acid-glutamine-aspartic acid-alanine-lysine) in which the serine surrounding sequence of the amino acid sequence No. 198 of CDC25C having been reported as the site for PLK1 substrate [EMBO Report, Vol. 3, 341 (2002)] is altered, was used as a substrate.
The volume of the reaction solution was 21.1 μL and the composition of the reaction buffer was 20 mM tris-hydrochloric acid buffer (pH 7.4)/10 mM magnesium chloride/0.5 mM dithiothreitol/1 mM EGTA (ethylene glycol-bis(beta-aminoethylether)-N,N,N′,N′,-tetraacetic acid). Thereto, purified PLK 1, 50 μM of the substrate peptide, 50 μM of non-labeled adenosine triphosphate (ATP), and 1 μCi of [γ-^33P]-labeled ATP (2000 to 4000 Ci/mmole) were added to carry out the reaction at 25° C. for 20 minutes. Then, 10 μL of 350 mM phosphate buffer was added to the reaction system to terminate the reaction. The resultant solution was spotted onto a multi-screen phosphocellulose filter on a 96-well plate. After washing the phosphocellulose filter with 75 mM phosphate buffer, the filter was dried to measure the radioactivity with a liquid scintillation counter. […]

The EC50 is the concentration giving half of the maximal effect.

T1 sequence (P53350 whole entry): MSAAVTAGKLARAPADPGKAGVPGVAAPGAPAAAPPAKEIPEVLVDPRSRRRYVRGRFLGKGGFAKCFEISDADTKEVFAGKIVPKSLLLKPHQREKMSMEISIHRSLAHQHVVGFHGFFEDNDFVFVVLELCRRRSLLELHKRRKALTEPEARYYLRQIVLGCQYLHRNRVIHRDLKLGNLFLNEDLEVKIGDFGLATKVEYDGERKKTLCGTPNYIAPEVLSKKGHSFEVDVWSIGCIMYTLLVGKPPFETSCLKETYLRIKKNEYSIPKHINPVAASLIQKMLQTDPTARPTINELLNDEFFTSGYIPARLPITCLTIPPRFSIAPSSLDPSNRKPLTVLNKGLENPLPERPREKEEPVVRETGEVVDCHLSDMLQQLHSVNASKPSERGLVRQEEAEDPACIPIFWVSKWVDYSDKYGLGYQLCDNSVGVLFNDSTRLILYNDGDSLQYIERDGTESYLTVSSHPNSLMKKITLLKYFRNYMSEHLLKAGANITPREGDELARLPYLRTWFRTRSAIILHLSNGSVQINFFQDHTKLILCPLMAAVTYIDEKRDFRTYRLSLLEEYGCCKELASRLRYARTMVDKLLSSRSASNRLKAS
T2 sequence (P53350 whole entry T210D): as the sequence (P53350 whole entry) above, with T210D counted along it

As to `C[C@@H](Oc1nc(-c2cnc3cnc(CS(C)(=O)=O)cn23)sc1C(N)=O)c1ccc(CN(C)C)cc1Cl` [Example 236], in assay [1], the EC50 is 100 nM. For `CC(Oc1cc(-c2cnc3cnccn23)sc1C(N)=O)c1ccccc1Cl` (centres unmarked) [Example 163], the EC50 in assay [1] came to 660 nM. With `C[C@@H](Oc1cc(-c2cnc3ccc(OCCO)cn23)sc1C(N)=O)c1ccccc1Cl` [Example 66, 3-[(1R)-1-(2-chlorophenyl)ethoxy]-5-[6-(2-hydroxyethoxy)imidazo[1,2-a]pyridin-3-yl]thiophene-2-carboxyamide], the EC50 in assay [1] worked out at 360 nM. Consider `CC(Oc1nc(-c2cnc3ccccn23)sc1C(N)=O)c1ccccc1Cl` (centres unmarked) [Example 161], for which the EC50 in assay [1] was determined as 490 nM. As for `C[C@@H](Oc1cc(-c2cnc3ccc(CN4CCNCC4)cn23)sc1C(N)=O)c1ccccc1Cl` [Example 119, 3-[(1R)-1-(2-chlorophenyl)ethoxy]-5-[6-(piperazin-1-ylmethyl)imidazo[1,2-a]pyridin-3-yl]thiophene-2-carboxyamide], the results for the IC50 in assay [2] and in assay [3] were 28 nM and 22 nM, respectively. Further, the EC50 in assay [1] was 210 nM. For `CC(Oc1cc(-c2cnc3ccccn23)sc1C(N)=O)c1ccccc1[N+](=O)[O-]` (centres unmarked) [Example 44, 5-imidazo[1,2-a]pyridin-3-yl-3-[1-(2-nitrophenyl)ethoxy]thiophene-2-carboxyamide], in that order: 12 nM, 12 nM and 70 nM.

Consider `C[C@@H](Oc1cc(-c2cnc3ccc(C#N)cn23)sc1C(N)=O)c1ccc(CNC(C)(C)CO)cc1OC(F)F` [Example 188, 5-(6-cyanoimidazo[1,2-a]pyridin-3-yl)-3-[(1R)-1-(2-(difluoromethoxy)-4-{[(2-hydroxy-1,1-dimethylethyl)amino]methyl}phenyl)ethoxy]thiophene-2-carboxyamide], for which, in assay [1], the EC50 was determined as 390 nM.

These data come from US8030327B2 (MDS K.K., priority 2004, dated 2011).
